Results from patent publication US20250262188A1, “Methods of Increasing the Plasma Drug Exposure of Anticancer Agents” (Scandion Oncology A/S, priority 2021, published 2025).

Experiment: Plasma concentrations of SCO-101 and SN-38 in patients upon repeated administration of SCO-101 (Example 1)
Format: in vivo, human
Settings: 150 mg SCO-101 repeated every 24 hours, FIG. 1D
Protocol: On days 1, 2, 3, 4, 5 and 6 in each treatment cycle, patients received one fixed daily dose of 150 mg SCO-101 taken in the morning at least 30 minutes before ingestion of food. On day 5 to 7, patients received FOLFIRI as specified for Colorectal cancer combination regimen 2. Blood samples were taken from patients at predefined timepoints according to the study protocol. During the first cycle of treatment, blood samples for pharmacokinetic analysis of SCO-101, irinotecan, and SN-38 were taken as follows: • Day 1; (pre-SCO-101 administration, 1; 4; 5; 6; 8); only for PK analysis of SCO-101 • Day 2; […] (pre-SCO-101 administration, 1; 4; 5; 6; 8) • Day 6; […] (48 hours), • Day 9; (96 hours). Blood samples were collected in 4 mL blood-collection tubes using lithium heparin as the anti-coagulant. Blood samples were centrifuged, and the resulting plasma is withdrawn and stored at −70° C. until analysis. […] The method and system, including validation were according to industry standard. Data were analysed using commercially available software such as Win-Non-Lin (available from Certara inc.) SCO-101 and Irinotecan was administered as described in the materials and methods section. Blood samples were withdrawn and analysed as specified. […] Raw data was then plotted using win-non-lin software to obtain relevant pharmacokinetic parameters, e.g. Cmax and AUC. […]

Structure (SMILES): O=C(Nc1cc(C(F)(F)F)cc(C(F)(F)F)c1)Nc1ccc(Br)cc1-c1nnn[nH]1 [SCO-101]
- SCO-101 plasma level at which levels stabilize over time (modelled from patient data): around 55 μg/mL
- half-life (human, plasma, oral, read-out: SCO-101 half-life after stopping the administration (converted)): ~24 h
